Data on three compounds can be found in publication PMC4979595, “Pilot PET Study to Assess the Functional Interplay Between ABCB1 and ABCG2 at the Human Blood–Brain Barrier” (Clinical Pharmacology and Therapeutics, 2016).

Values joined by “and” are separate entries in the source; they are usually repeats but may differ in a detail not shown here. Identical values can stand only once. Like-named read-outs stand apart in the source and are kept apart here. Marks after values point to notes of the source that are not given here.

Series [1] can be described thus: Plasma protein binding by ultrafiltration. The note with it: similar in baseline and ABCB1 inhibition scans, high nonspecific filter binding.
Series [2] in a line: Plasma time-activity curve AUC of radiotracers. The note with it: c.421CC.
From the text: (§1) A whole brain gray matter region of interest was defined on individual magnetic resonance images acquired in all study participants (T1‐weighted Achieva 3.0T scanner; Philips Medical Systems, Best, The Netherlands) using the Hammersmith n30r83 3D maximum probability atlas of the human brain.43 In addition, the pituitary gland was manually delineated.
In series [3] the test system is ABCB1 and ABCG2 at the human BBB. The experiment in a line: PET brain distribution of radiotracers, baseline scan and scan during ABCB1 inhibition with tariquidar infusion. The note with it: for K 1 / k 2 / k 3 / k 4: 2T4K model; for K 1 / k 2 / k 3 / k 4 / V T (2T4K) / V T (Logan): whole brain; for whole brain V T (Logan) lower than V T (Logan) in the pituitary gland: c.421CC subjects.
From the text: as §1

Series [4] in a line: Radiolabeled metabolites / unchanged radiotracer in plasma during PET (solid-phase extraction). The note with it: 60 minutes after injection, c.421CC subjects.
Series [5] concerns ABCB1 and ABCG2 at the human BBB. Particulars: in vivo.
From the text: as §1
The next series is described as follows: in vitro. Particulars: human, plasma.
Details of series [6]: method as in earlier work. Particulars: (R)-[^11C]verapamil group, no ABCG2 genotype available, data from previous study, cited from earlier work.
The nature of series [7]: Safety monitoring: adverse events during study participation. Particulars: relationship with tariquidar administration could not be excluded. The class given is in vivo, human. On the procedure:
During the PET study, heart rate and blood pressure were repeatedly measured and recorded. In addition, clinical laboratory blood and urine tests were performed. Adverse events were recorded.

Series [8] concerns the target T1, human ABCB1 (Homo sapiens, UniProt P08183).
The target of the next series is T2, human ABCG2 (Homo sapiens, UniProt Q9UNQ0).
T2 construct: P. Borst and Dr. A. Schinkel (Netherlands Cancer Institute); host or cells: MDCK-II (MDCK-ABCG2)
T2 sequence (Q9UNQ0 1-655): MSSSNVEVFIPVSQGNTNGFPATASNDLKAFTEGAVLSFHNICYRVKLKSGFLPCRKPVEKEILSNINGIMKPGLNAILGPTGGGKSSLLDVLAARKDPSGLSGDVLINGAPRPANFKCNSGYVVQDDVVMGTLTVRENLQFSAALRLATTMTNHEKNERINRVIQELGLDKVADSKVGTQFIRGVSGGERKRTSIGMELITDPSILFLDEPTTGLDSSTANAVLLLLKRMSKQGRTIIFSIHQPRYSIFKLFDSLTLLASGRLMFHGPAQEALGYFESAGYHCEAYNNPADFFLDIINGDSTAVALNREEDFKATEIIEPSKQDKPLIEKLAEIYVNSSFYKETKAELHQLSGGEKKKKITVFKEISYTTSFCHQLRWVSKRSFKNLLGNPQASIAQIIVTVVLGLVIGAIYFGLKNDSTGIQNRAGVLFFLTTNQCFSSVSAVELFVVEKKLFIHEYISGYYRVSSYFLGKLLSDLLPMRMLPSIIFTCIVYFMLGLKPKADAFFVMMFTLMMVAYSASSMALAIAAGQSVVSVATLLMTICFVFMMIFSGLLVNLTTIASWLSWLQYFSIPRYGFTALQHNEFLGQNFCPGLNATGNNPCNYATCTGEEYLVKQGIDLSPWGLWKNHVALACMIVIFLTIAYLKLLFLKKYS
Nature of the series: In vitro uptake assay in MDCK-ABCG2 cells: tariquidar inhibition of ABCG2-mediated transport. The class given is cell-based. The note with it: for IC50: IC50 of tariquidar for inhibition of ABCG2 transport, 120 min uptake. The method, then: LLC‐PK1 cells transduced with human ABCB1 (LLC‐ABCB1) and MDCK‐II cells transduced with human ABCG2 (MDCK‐ABCG2) were kindly provided by Prof. P. Borst and Dr. A. Schinkel (Netherlands Cancer Institute, Amsterdam, Netherlands). Culturing of the cells and testing of vincristine sulfate resistance (0.64 μmol/L) for LLC‐ABCB1 cells and mitoxantrone resistance (20 μmol/L) for MDCK‐ABCG2 cells was performed as described previously.46
Cells were seeded with a density of 0.3 × 10^6 cells/cm^2 on 96‐well plates (white Isoplates for liquid scintillation counting, Perkin Elmer, Rodgau, Germany). Then 5–7 days after the cells reached 100% confluence, the experiment was initiated with 1‐hour preincubation at 37°C, 5% carbon dioxide, and 95% humidity, for which culture medium was replaced by serum‐free Opti‐MEM (Gibco/Life Technologies, Darmstadt, Germany). […] After 120 minutes (37°C, 5% carbon dioxide, 95% humidity), cells were transferred on ice, washed twice with ice‐cold phosphate‐buffered saline before lysis buffer (25 mmol/L Tris, pH 8, 50 mmol/L sodium chloride, 0.5% (w/v) deoxycholic acid, 0.5% (w/v) Triton X‐100) supplemented with complete protease inhibitor (Roche, Mannheim, Germany) was added and protein concentrations in the respective wells were determined by using the Pierce BCA Protein Assay kit (ThermoScientific, Pittsburgh, PA).
With Prism 6.0 software (GraphPad Software, La Jolla, CA), a sigmoidal model with variable slope was used to analyze concentration–response relationships by nonlinear regression.

The target in series [9] is T1, human ABCB1. The experiment in a line: cell-based.
In a further series the test system is ABCB1 at the human BBB. Details: method as in PMID 25669913. The note with it: tariquidar plasma concentration; previously estimated; read-out: in vivo IC50 for inhibition of ABCB1 transport of (R)-[^11C]verapamil at the human BBB; cited from earlier work.
The nature of series [10]: Tariquidar plasma concentrations during second PET scan (LC-MS/MS).

T1 sequence (P08183 whole entry): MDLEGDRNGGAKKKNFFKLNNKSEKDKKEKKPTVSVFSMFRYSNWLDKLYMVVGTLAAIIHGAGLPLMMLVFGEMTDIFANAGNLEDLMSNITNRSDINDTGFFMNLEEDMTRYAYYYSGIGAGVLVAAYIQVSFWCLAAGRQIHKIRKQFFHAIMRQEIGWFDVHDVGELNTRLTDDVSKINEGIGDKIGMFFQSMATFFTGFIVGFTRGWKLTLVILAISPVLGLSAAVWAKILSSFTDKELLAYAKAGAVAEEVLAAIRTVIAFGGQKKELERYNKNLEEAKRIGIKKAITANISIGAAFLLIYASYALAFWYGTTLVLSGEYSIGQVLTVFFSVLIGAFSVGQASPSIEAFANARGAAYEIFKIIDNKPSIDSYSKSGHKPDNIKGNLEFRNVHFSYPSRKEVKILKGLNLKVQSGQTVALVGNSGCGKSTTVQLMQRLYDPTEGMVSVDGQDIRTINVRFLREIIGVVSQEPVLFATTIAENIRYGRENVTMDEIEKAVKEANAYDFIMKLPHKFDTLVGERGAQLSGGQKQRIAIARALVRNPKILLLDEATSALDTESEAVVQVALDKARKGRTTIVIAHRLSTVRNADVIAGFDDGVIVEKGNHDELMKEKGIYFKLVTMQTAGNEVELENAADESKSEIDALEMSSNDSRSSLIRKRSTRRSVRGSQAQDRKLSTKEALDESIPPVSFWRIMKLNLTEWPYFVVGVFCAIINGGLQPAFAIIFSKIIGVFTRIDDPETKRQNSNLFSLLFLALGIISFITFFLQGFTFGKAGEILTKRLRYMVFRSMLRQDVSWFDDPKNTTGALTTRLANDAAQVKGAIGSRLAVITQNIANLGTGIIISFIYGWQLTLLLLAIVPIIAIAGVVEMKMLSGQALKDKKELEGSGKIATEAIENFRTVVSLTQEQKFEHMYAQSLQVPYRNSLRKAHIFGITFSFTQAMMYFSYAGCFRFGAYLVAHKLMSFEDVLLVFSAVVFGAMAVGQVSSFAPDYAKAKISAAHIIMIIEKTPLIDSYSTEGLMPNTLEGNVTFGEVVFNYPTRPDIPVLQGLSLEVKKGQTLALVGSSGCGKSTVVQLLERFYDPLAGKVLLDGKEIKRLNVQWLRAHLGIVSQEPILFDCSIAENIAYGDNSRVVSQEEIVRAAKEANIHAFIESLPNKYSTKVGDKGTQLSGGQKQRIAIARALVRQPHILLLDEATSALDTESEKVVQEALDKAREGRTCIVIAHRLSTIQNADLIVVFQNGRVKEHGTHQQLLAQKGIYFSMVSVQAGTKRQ

`COc1cc2c(cc1OC)CN(CCc1ccc(NC(=O)c3cccc4c(=O)c5cccc(OC)c5[nH]c34)cc1)CC2` [[^11C]elacridar]: the Plasma protein binding in series [1] is reported as > 99%. For the same compound, in [2] (0 to 60 min), the “AUC ABCB1 inhibition (plasma time-activity curve)” value is 46.9 ± 8.0 SUV x min and the “AUC baseline (plasma time-activity curve)” value was determined as 37.2 ± 6.2 SUV x min. Also, the “% change over baseline (plasma AUC)” value in series [2] stood at 27 ± 12%. For the same compound, in series [3] (c.421CC ABCB1 inhibition), the “K 1” value is recorded as 0.013 ± 0.005 (8) mL/(g x min), the “k 2” value was 0.302 ± 0.250 (31) 1/min, the “k 3” value is recorded as 0.198 ± 0.050 (21) 1/min and the “k 4” value is listed as 0.016 ± 0.003 (13) 1/min. Besides, in series [3] (c.421CC ABCB1 inhibition), the “V T (2T4K)” value is recorded as 0.676 ± 0.111 (6) and the “V T (Logan)” value is 0.658 ± 0.098 (9). Also, in [3] (c.421CC baseline), the “K 1” value is 0.006 ± 0.002 (9) mL/(g x min), the “k 2” value is on record as 0.135 ± 0.050 (33) 1/min, the “k 3” value is reported as 0.148 ± 0.040 (22) 1/min and the “k 4” value is 0.015 ± 0.004 (17) 1/min. For the same compound, in series [3] (c.421CC baseline), the “V T (2T4K)” value was 0.492 ± 0.051 (9) and the “V T (Logan)” value is on record as 0.478 ± 0.027 (6). Also, the “whole brain V T (Logan) lower than V T (Logan) in the pituitary gland” value in series [3] (scan 1 (baseline)) amounted to 13.2 ± 4.6 fold. Besides, the “whole brain V T (Logan) lower than V T (Logan) in the pituitary gland” value in series [3] (scan 2 (ABCB1 inhibition)) worked out at 7.9 ± 2.1 fold. The “baseline whole brain V T (Logan) lower in humans than in rats” value in series [3] (comparison with a previous preclinical study) is reported as ~2 fold. Moreover, the “V T (Logan) in the pituitary gland during tariquidar infusion as compared with baseline scans” value in series [3] (pituitary gland) is “not significantly different”. Besides, the “increase in V T (Logan) in scan 2” value in series [3] (single c.421CA subject with the highest increase (scanned with both radiotracers)) stood at 2.3 fold. Besides, the “percentage of unchanged radiotracer in plasma” value in series [4] (baseline scans) was found to be 94.6 ± 2.3%. Also, the “percentage of unchanged radiotracer in plasma” value in series [4] (second PET scan (tariquidar infusion)) is given as 94.7 ± 1.1%.

Regarding `COc1cc2c(cc1OC)CN(CCc1ccc(NC(=O)c3cc(OC)c(OC)cc3NC(=O)c3cnc4ccccc4c3)cc1)CC2` [[^11C]tariquidar], the “baseline whole brain V T (Logan) lower in humans than in rats” value in [5] (human compared with rat) is reported as ~2 fold. In series [5] (human), the “V T (Logan)” value was 0.40 and the “increase in V T (Logan) in scan 2” value was 3.1 fold. Moreover, the fraction unbound in “in vitro” was < 0.01.

Take `COc1cc2c(cc1OC)CN(CCc1ccc(NC(=O)c3cc(OC)c(OC)cc3NC(=O)c3cnc4ccccc4c3)cc1)CC2` [tariquidar]: the “Tariquidar concentration in plasma of individual subjects” value (“Tariquidar concentration in plasma” below) in series [6] (end of PET) was 3.76 µmol/L and 2.52 µmol/L and 4.11 µmol/L and 2.83 µmol/L and 3.38 µmol/L; in series [6] (middle of PET) it was 3.61 µmol/L and 2.71 µmol/L and 3.88 µmol/L and 2.85 µmol/L and 2.56 µmol/L; in series [6] (start of PET) it was 2.81 µmol/L and 1.70 µmol/L and 2.36 µmol/L and 1.91 µmol/L and 2.11 µmol/L; in [10] (end of PET, [^11C]elacridar c.421CA), 2.22 µmol/L; in [10] (end of PET, [^11C]elacridar c.421CC), 2.45 µmol/L and 1.98 µmol/L and 2.58 µmol/L and 2.72 µmol/L and 4.03 µmol/L; in [10] (end of PET, [^11C]tariquidar c.421CA) it was 3.67 µmol/L and 3.18 µmol/L and 2.24 µmol/L and 3.08 µmol/L and 3.79 µmol/L. Besides, the “Tariquidar concentration in plasma” value in series [10] (end of PET, [^11C]tariquidar c.421CC) was 2.71 µmol/L and 2.78 µmol/L and 3.13 µmol/L and 3.70 µmol/L; in [10] (middle of PET, [^11C]elacridar c.421CA) it was 2.23 µmol/L; in series [10] (middle of PET, [^11C]elacridar c.421CC) it was 2.33 µmol/L and 2.55 µmol/L and 2.71 µmol/L and 2.43 µmol/L and 3.73 µmol/L; in [10] (middle of PET, [^11C]tariquidar c.421CA), 3.93 µmol/L and 3.55 µmol/L and 3.31 µmol/L and 2.86 µmol/L and 3.57 µmol/L; in series [10] (middle of PET, [^11C]tariquidar c.421CC), 2.68 µmol/L and 2.09 µmol/L and 2.95 µmol/L and 2.70 µmol/L and 2.65 µmol/L; in series [10] (start of PET, [^11C]elacridar c.421CA), 1.94 ^a µmol/L. The “Tariquidar concentration in plasma” value in series [10] (start of PET, [^11C]elacridar c.421CC) was 2.67 µmol/L and 1.83 µmol/L and 1.71 µmol/L and 2.74 µmol/L and 2.73 µmol/L; in [10] (start of PET, [^11C]tariquidar c.421CA), 3.70 µmol/L and 2.61 µmol/L and 2.87 ^a µmol/L and 2.47 µmol/L and 2.80 µmol/L; in series [10] (start of PET, [^11C]tariquidar c.421CC) it was 2.91 µmol/L and 2.17 µmol/L and 2.65 µmol/L and 2.67 µmol/L and 2.64 µmol/L. Besides, in series [7], the “Adverse event: abdominal cramps and vomiting” value is given as “one”. The “Adverse event: collapse” value in [7] was “four”. Further, the “Adverse event: dizziness” value in series [7] is recorded as “two”. Also, the “Adverse event: dysgeusia” value in series [7] is given as 10 subjects. For the same compound, the “Adverse event: headache” value in series [7] is on record as “three”. Also, the “Adverse event: phlebitis” value in series [7] was “three”. Moreover, the IC50 was 17.1 nM at human ABCB1 [8]; 813 nM at human ABCG2 ([^3H]elacridar (1 nmol/L) as substrate); 310 nM against human ABCG2 ([^3H]tariquidar (1 nmol/L) as substrate); 29.5 nM against human ABCB1 [9]; 2300 ± 1000 nM in the series on ABCB1 at the human BBB. For the same compound, the Hill slope at human ABCG2 ([^3H]elacridar as substrate) and at human ABCG2 ([^3H]tariquidar as substrate) was 1.1 each time. Moreover, the “Tariquidar plasma concentration during the PET scan (average of three determinations)” value in series [10] ([^11C]elacridar group, c.421CC, i.v. infusion, total dose 5.7 ± 0.8 mg/kg) worked out at 2.6 ± 0.5 µmol/L. Further, in series [10] ([^11C]tariquidar group, c.421CA, i.v. infusion), the “Tariquidar plasma concentration at the time of PET” value is 3.2 ± 0.4 µmol/L.

By fraction unbound is commonly meant the share of the substance not bound to proteins or other matrix. Low values mean extensive binding, high ones weak binding. By IC50 is commonly meant the point on the concentration scale where inhibition reaches its midpoint. The Hill slope is a measure of the steepness of the concentration-response curve.
